We go through one compound from patent US20230172132A1, “A METHOD FOR […] CONTENT IN A CROP PLANT” (SENSIENT COLORS, LLC, priority 2020, published 2023).

SMILES strings stand for the structures.

For one test, the system named is red beet (Beta vulgaris). In words: Greenhouse testing: foliar spray of Ethephon on crop plants, pigment content of roots at harvest. As to conditions: for Betanin / Vulgaxanthin: greenhouse, spray rate not given. In kind it is in vivo. As to the method:
Planting of varieties were staggered across several weeks to vary maturity for one spray. Two spray rates were administered across all plants on one spray date ([…]). Harvesting was done 3-4 weeks after spray. Initial visualization was performed prior to crop samples sent to laboratory for evaluation.

A further test deals with beet plant. In words: Pre-harvest foliar spraying of ethylene-releasing compound on beet leaves, betalain concentration of roots versus unsprayed controls. In kind it is in vivo, Beta vulgaris. An excerpt:
In one embodiment, the method comprises the pre-harvest foliar spraying of an ethylene-releasing compound on a beet plant, wherein the pre-harvest foliar spraying of an ethylene-releasing compound leaves the mean betalain concentration in the roots of the treated plants increased by more than 200% when compared to controls without any spraying.
The method described herein may be used for commercially-relevant, large scale production of a betalain pigment, e.g., the large scale isolation from a beet crop plant. Accordingly, it may be that the isolation of betalains of step (iii) is done from at least 15 different harvested beet plants, more preferably from at least 100 different harvested beet plants, even more preferably from at least 500 different harvested beet plants, or such as from at least 1000 different harvested beet plants. It is evident that when at least 15 different harvested beet plants are used in isolation step (iii), then foliar spraying of ethylene-releasing compound (e.g., 2-Chloroethylphosphonic acid) of step (i) has been done on at least 15 different beet plants and in step (ii), at least 15 different crop plants have been harvested. As discussed above, the present inventors identified that by pre-harvest foliar spraying of 2-Chloroethylphosphonic acid (e.g., 2-Chloroethylphosphonic acid) on beet leaves the mean betalain concentration of treated plants increased by an increased amount when compared to controls without any spraying.
Preferably, the amount of isolated betalain pigment in step (iii) of the method is an amount of betalain pigment which is at least 15% higher (w/w), more preferably at least 20/a higher (w/w), even more preferably at least 25% higher (w/w), and most preferably at least 35% higher (w/w), as compared to the amount of betalain pigment that is isolated in a control experiment without use of the ethylene-releasing compound in step (i). The purpose of a control experiment is to analyze the effect of using ethylene-releasing compound (e.g. 2-Chloroethylphosphonic acid). […]

Setting [1] is: harvest 7, 10, 13, 16, 19, 22, 25, 26, 29 and 35 weeks after planting, every harvest point.

In the case of `O=P(O)(O)CCCl` [Ethephon, 2-Chloroethylphosphonic acid], the Betanin was 320 mg/kg, dry basis in the test with red beet (Beta vulgaris) (beet variety Chioggia); 9,400 mg/kg, dry basis in the test on red beet (Beta vulgaris) (red beet variety Nochowski); 6,000 mg/kg, dry basis in the test on red beet (Beta vulgaris) (red beet variety Red Cloud); 3,500 mg/kg, dry basis with red beet (Beta vulgaris) (red beet variety Ruby Queen). The Vulgaxanthin with red beet (Beta vulgaris) (beet variety Chioggia) was 380 mg/kg, dry basis; in the test on red beet (Beta vulgaris) (red beet variety Nochowski) it was 6,700 mg/kg, dry basis; with red beet (Beta vulgaris) (red beet variety Red Cloud), 3,300 mg/kg, dry basis; in the test with red beet (Beta vulgaris) (red beet variety Ruby Queen), 800 mg/kg, dry basis. The Anthocyanin levels entry in the test with red beet (Beta vulgaris) (carrots, beets and radishes, spray 120 g/h and 360 g/h, harvest 3-4 weeks after spray) is given as “Enhanced”. Moreover, the “mean betanin concentration of treated roots” value in the test on beet plant (setting [1]) is reported as “higher”. The “mean vulgaxanthin concentration of treated roots” value in the test on beet plant (setting [1]) is “higher”. Further, the “mean betalain concentration of treated plants compared to controls without any spraying” value in the test with beet plant (pre-harvest foliar spraying on beet leaves) is reported as “increased”.
